Measured values reported in patent US20200323790A1, “METHOD FOR TREATMENT OF ACUTE LUNG INJURY BY USE OF KIRENOL” (CHUNG SHAN MEDICAL UNIVERSITY, priority 2019, published 2020).

Columns and labels:
[1] = test system: superoxide dismutase (SOD); assay: Antioxidant enzyme activity in lung tissue: SOD; assay type: in vivo, mice; conditions: kirenol 3, 10, 30 mg/kg IP; vs LPS stimulated group; FIG. 6
Procedure: (§1) BALB/c mice (5-7 weeks old) are obtained from the National Laboratory Animal Center (NLAC) and maintained in the laboratory for a week in order to adapt to the environment. Then experiments are carried out as follows. The mice are divided into three groups. The control group: mice in the group are injected with normal saline by intratracheal injection (IT). The LPS stimulated group: mice in the group are treated with a 50 μL solution containing 100 μg of lipopolysaccharide (LPS) by IT for inducing ALI. The kirenol group: mice are given an intraperitoneal injection (IP) of 3 mg/kg, 10 mg/kg, and 30 mg/kg of kirenol respectively. After 30 minutes, each mouse is treated with 100 μg of LPS by IT. The dexamethasone group: mice are dosed with 1 mg/kg of dexamethasone by IP and then treated with 100 μg of LPS by IT after 30 minutes.
(§2) The mice in the respective group are killed 6 hours after LPS administration. Then use bronchoalveolar lavage (BAL) to get (Bronchoalveolar lavage fluid (BALF). And perform differential blood count, detect neutrophil activity and measure protein content in BALF. The lung tissue of the mice is used in histopathology examination, analysis of pulmonary edema, lipid peroxidation assay, and antioxidant activity analysis.
(§3) During acute lung injury, the increasing pulmonary oxidative stress easily leads to lung tissue damage. […]

[2] = test system: BALB/c mice; assay: Lung tissue wet/dry ratio (lung edema) in LPS-induced ALI mice; assay type: in vivo; conditions: kirenol 3, 10, 30 mg/kg IP, FIG. 2
Procedure: as §1, §2
The mice are killed and lung tissue is obtained. […] Thereby the wet/dry ratio of the lung tissue is calculated by dividing the wet weight by the dry weight.

[3] = test system: catalase (CAT); assay: Antioxidant enzyme activity in lung tissue: CAT; assay type: in vivo, mice; conditions: kirenol 3, 10, 30 mg/kg IP; vs LPS stimulated group; FIG. 7
Procedure: as §1, §2, §3

[4] = test system: BALB/c mice; assay: Neutrophils in BALF (Giemsa stain) in LPS-induced ALI mice; assay type: in vivo; conditions: kirenol 3, 10, 30 mg/kg IP; vs LPS stimulated group; FIG. 4
Procedure: as §1
(§4) The mice in the respective group are killed 6 hours after LPS administration. […]
(§5) Polymorphonuclear leucocytes and protein in the capillary flow into the alveoli while alveolar capillary barrier being damaged. Thus the integrity of alveolar capillary barrier can be evaluated by analysis of the content of polymorphonuclear leucocytes and protein in the BALF. […]

[5] = test system: glutathione peroxidase (GSH); assay: Antioxidant enzyme activity in lung tissue: glutathione peroxidase; assay type: in vivo, mice; conditions: kirenol 3, 10, 30 mg/kg IP; vs LPS stimulated group; FIG. 8
Procedure: as §1, §2, §3

[6] = test system: BALB/c mice; assay: Lipid peroxidation (malondialdehyde, MDA) in lung of LPS-induced ALI mice; assay type: in vivo; conditions: kirenol 3, 10, 30 mg/kg IP; vs LPS stimulated group; FIG. 5
Procedure: as §1, §4
For evaluation of lung tissue damage, the amount of malondialdehyde (MDA), the final product of lipid peroxidation in lung, is measured. […] Lastly absorbance of the mixed solution is measured at 532 nm.

[7] = test system: BALB/c mice; assay: Histopathology (H&E) of lung in LPS-induced ALI mice; assay type: in vivo; conditions: LPS 100 μg IT; kirenol 3, 10, 30 mg/kg IP or dexamethasone 1 mg/kg IP 30 min before LPS; 6 h after LPS; FIG. 1
Procedure: as §1, §2
Kirenol used is obtained from ChemFaces (Catalog No. CFN98867) dissolved in Dimethyl sulfoxide (DMSO). […]

[8] = test system: BALB/c mice; assay: Protein content in BALF (Bradford assay) in LPS-induced ALI mice; assay type: in vivo; conditions: kirenol 3, 10, 30 mg/kg IP, FIG. 3
Procedure: as §1, §4, §5

Structure (SMILES): C[C@@]1(CO)C[C@@H](O)C[C@@]2(C)[C@@H]3CC[C@](C)([C@@H](O)CO)C=C3CC[C@H]12 [Kirenol]
- activity of SOD in lung [1]: increased in a dose dependent manner
- lung edema induced by LPS [2]: improves lung edema induced by LPS in a dose dependent fashion
- wet/dry ratio of the lung tissue ([2]; vs LPS stimulated group): reduced
- activity of CAT in lung [3]: increased in a dose dependent manner
- number of neutrophils / neutrophil infiltration in alveolar cavity [4]: reduces neutrophil infiltration in alveolar cavity caused by LPS in a dose dependent manner
- activity of GSH (glutathione peroxidase) in lung [5]: increased in a dose dependent manner
- lipid peroxidation in lung (MDA) [6]: prevents lipid peroxidation caused by LPS in a dose dependent manner
- hyaline membrane formation in lung [7]: reduces hyaline membrane formation in lung and immune cell infiltration induced by LPS in a dose dependent manner
- immune cell infiltration in lung [7]: reduces hyaline membrane formation in lung and immune cell infiltration induced by LPS in a dose dependent manner
- integrity of alveolar capillary barrier [8]: prevents damage to the integrity of alveolar capillary barrier caused by LPS in a dose dependent way
- protein content in BALF ([8]; vs LPS stimulated group): lowered
